From patent US20090239926A1, “METHODS FOR THE TREATMENT OF PSORIASIS OR PSORIATIC ARTHRITIS USING CYCLOPROPYL-N-CARBOXAMIDE” (priority 2008, published 2009)
“And” between values parts separate entries of the source, which are not always exact repeats. Equal values may be shown once.

What was measured:
[1] = test system: TNF-α production by synoviocytes from rheumatoid arthritis patients; assay: TNF-α production by human rheumatoid synovial membrane cells; format: cell-based; conditions: 48 hours culture, ELISA
Description: Human Rheumatoid Synovial Membrane Cell: Rheumatoid synovial membrane tissue samples were processed to dissociate the cells from the matrix by digesting the tissue with Collagenase A and DNAse. The cells were then plated into a 96-well flat-bottom plate at 1×10^6/well in RPMI (10% FCS) and treated with Compound A and controls (in triplicate). The cells were cultured for 48 hours at 37° C. in 5% CO2 before supernatants were harvested and analyzed by ELISA.
Compound A was solubilized under sterile conditions in filter-sterilized dimethyl sulphoxide (DMSO). The vehicle control contained the same concentration of DMSO used as the diluent in the highest concentration of drug used. A combined treatment of anti-TNF-α and IL-1RA, both at 10 μg/ml, was used as a positive control.

[2] = biological target: T1, PDE3 from human platelets (Homo sapiens, UniProt Q14432); assay: Specificity: PDE3; format: biochemical
T1 construct: PDE3 and PDE5 from human platelets; from tissue; host or cells: human platelets
Description: The specificity of Compound A for PDE4 was assessed by testing at a single concentration (10 μM) against bovine PDE1, human PDE2, PDE3 and PDE5 from human platelets, and PDE6 from bovine retinal rod outer segments.

[3] = test system: IL-5 production by human CD4+ T cells; assay: IL-5 production by CD4+ T cells; format: cell-based; conditions: CD4+ T cell, stimulated with CD3 antibody OKT3 and CD28 antibody CD28.2
Description: CD4^+ T cells were purified from human leukocytes obtained from the Blood Center of New Jersey (East Orange, N.J.) by negative selection (Schafer, P. H., et al., J Immunol, 1999. 162(12): 7110-9). CD4^+ T cells were stimulated with CD3 antibody OKT3 (purified from OKT3 hybridoma supernatant) and CD28 antibody CD28.2 (BD Pharmingen) (Hatzelmann, A. and C. Schudt, J Pharmacol Exp Ther, 2001. 297(1): 267-79). IL-5 was measured by ELISA (R&D Systems).

[4] = test system: normal human skin xenotransplanted onto beige-SCID mice injected with psoriatic patient NK cells; assay: Human NK cell-driven psoriasis model: human skin xenotransplanted onto beige-SCID mice; format: in vivo; conditions: 5 mg/kg/day p.o., b.i.d., 14 days
Description: Healthy human skin pieces having a width of 0.4 mm and surface area of 3×3 cm were provided from residual skin of routine plastic surgery procedures from the Plastic Surgery Department of the Rambam Medical Center, Isreal. In addition, blood samples from psoriatic patients were taken at a volume of 25 mL.
Twenty-one (21) beige-severe combined immunodeficient mice (SCID) (weight about 20 g) were included in this study. Normal human skin was transplanted onto the beige-SCID mice as previously described by Nickoloff et al., 1995; Wrone-Smith, et al., 1996. A sample of each donor was transplanted onto […] so that the three treatment groups (n=7 mice/group) were homogenous.
PBMC from the psoriatic patient blood were isolated and cultured in the presence of IL-2 (100 U/mL of media) for 14 days to activate the NK cells, as previously described by Gilhar et al., J. Invest. Dermatol. 2002, 119(2):384-91. Four weeks following the engraftment, each mouse was injected with 1×10^7 psoriatic patients activated allogeneic NK cells (1×10^7 cells injected/mouse, n=21). Two weeks following the injections, the mice were divided and treated, twice a day for 14 days. All compounds were dosed at 5 mg/kg/day, divided into b.i.d. doses. To perform p.o. administration, mice were held firmly by gently gripping their fur over the neck with thumb and index fingers and restraining the tail with the little finger. A volume of 0.05 mL of a 1 mg/ml aqueous solution of Compound A was administrated twice a day (b.i.d.) with a syringe through a blunt-ended curved feeding tube, which was inserted into the esophagus. The vehicle (negative) control groups received 0.05 mL (b.i.d.) of a 0.5% carboxymethylcellulose and 0.25% Tween 80. […] Two weeks after starting the treatments (4 weeks following the injections), the skins were harvested. Grafts were analyzed by histology and immunohistochemistry.
Determination of Epidermal Thickness: Skin graft histological assessment was performed by light microscopy both before and after transplantation and two blinded observers performed the evaluations. Epidermal thickness was determined with an ocular micrometer, at a minimum of 50 points along the epidermis selected to represent points of maximal and minimal thickness. Thickness of the suprapapillary plate was similarly measured at 50 points for each sample.
Immunohistochemical Staining: Monoclonal antibodies to human antigens used were as follows for immunohistochemistry on frozen sections: anti-HLA-DR (Becton Dickenson, San Jose, Calif.), and anti-CD54 (ICAM-1) (Biodesign, Saco, Me.). Purified murine IgG was used as a control for the above antibodies. Immunohistochemistry was performed on OCT embedded specimens with a biotin-avidin system (Vectostain, Vector Laboratories, Burlingame, Calif.).
Goat anti-human TNF-α (R&D Systems, Minneapolis, Minn.) was used on deparaffinized and peroxidase blocked slides. Sections were treated with citrate buffer, pH=6, in the microwave oven for 20 minutes. The sections were then cooled for 30 minutes at room temperature and blocked for non-specific binding as well as avidin-biotin. All washes were performed with phosphate-buffered saline-saponin. Anti-TNF-α was applied overnight at 4° C. Slides were then incubated with biotinylated rabbit anti goat-IgG (DAKO, Carpinteria, Calif.), followed by streptavidin horseradish peroxidase (HRP) (Jackson Immunoresearch, West Grove, Pa.). The color was developed with 3-amino-9-ethylcarbazole (AEC).
Scoring of Immunohistochemical Staining: Diffuse staining was defined as positive and intense expression of more than 50 percent of the epidermis versus focal staining which was defined as less than 50 percent of the epidermis. Focal staining may represent positive expression of very small areas.
Statistical Analysis: Statistical analysis was carried out using the one-way ANOVA with a Bonferroni Multiple Comparison post-hoc test using Prism 4.00 (GraphPad Software; San Diego, Calif.).

T1 sequence (Q14432 whole entry): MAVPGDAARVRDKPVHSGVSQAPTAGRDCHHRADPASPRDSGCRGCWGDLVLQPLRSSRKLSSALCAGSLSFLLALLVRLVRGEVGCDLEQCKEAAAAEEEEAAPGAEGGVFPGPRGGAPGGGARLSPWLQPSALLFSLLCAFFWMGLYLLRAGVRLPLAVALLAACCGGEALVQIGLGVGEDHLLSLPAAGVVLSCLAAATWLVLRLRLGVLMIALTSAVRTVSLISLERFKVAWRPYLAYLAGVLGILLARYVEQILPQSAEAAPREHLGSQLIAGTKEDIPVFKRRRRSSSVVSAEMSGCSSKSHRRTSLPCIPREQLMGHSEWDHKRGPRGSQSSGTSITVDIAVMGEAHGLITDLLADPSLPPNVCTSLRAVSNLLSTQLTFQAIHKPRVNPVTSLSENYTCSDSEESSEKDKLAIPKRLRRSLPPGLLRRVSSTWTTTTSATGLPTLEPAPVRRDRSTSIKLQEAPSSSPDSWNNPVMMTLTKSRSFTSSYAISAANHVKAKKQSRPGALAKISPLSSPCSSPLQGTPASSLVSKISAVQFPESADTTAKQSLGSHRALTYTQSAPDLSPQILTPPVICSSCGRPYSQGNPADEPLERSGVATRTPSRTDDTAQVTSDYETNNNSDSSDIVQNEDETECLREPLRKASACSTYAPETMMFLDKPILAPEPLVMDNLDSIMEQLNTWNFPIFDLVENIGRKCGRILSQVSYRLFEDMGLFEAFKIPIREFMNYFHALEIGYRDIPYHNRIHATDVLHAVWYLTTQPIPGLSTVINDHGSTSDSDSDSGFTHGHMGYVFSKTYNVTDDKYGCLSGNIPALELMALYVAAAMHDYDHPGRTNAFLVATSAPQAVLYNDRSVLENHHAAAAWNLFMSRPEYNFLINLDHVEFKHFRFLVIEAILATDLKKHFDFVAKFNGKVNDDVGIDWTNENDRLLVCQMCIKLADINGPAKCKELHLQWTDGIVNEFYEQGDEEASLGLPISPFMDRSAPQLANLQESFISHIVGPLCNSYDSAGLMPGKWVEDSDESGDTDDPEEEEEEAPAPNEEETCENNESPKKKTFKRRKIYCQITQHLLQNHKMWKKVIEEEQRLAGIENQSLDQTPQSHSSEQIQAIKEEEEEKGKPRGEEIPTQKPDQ

CCOc1cc([C@@H](CS(C)(=O)=O)N2Cc3cccc(NC(=O)C4CC4)c3C2=O)ccc1OC [Compound A, cyclopropyl-N-{2-[(1S)-1-(3-ethoxy-4-methoxyphenyl)-2-(methylsulfonyl)ethyl]-3-oxoisoindoline-4-yl}carboxamide]
IC50 [1]: 100 nM | inhibition at 10 µM [2]: 9% | IC50 [3]: 520 nM and 0.25 µg/mL | HLA-DR staining: number of grafts (of 7) with Diffuse pattern [4]: 4 Diffuse | Histological features: Complete Recovery (grafts of 7) [4]: 3/7 | Histological features: Partial Recovery (grafts of 7) [4]: 1/7 | Histological features: Psoriasiform (grafts of 7) [4]: 3/7 | ICAM-1 staining: number of grafts (of 7) with Diffuse pattern [4]: 3 Diffuse | Recovery, partial or complete (grafts of 7) [4]: (4/7) | TNF-α staining: number of grafts (of 7) with Multiple TNF-α positive cells [4]: 3 Multiple | decrease in epidermal thickness compared to vehicle treated animals [4]: ~50% | grafts (of 7) with ICAM-1 reduced to focal or negative expression [4]: 4/7 | grafts (of 7) with few or negative TNF-α expressing cells [4]: 4/7 | overall response rate (partial plus complete recovery from psoriasis features) [4]: 57% | percentage of grafts with HLA-DR reduced to focal or negative expression [4]: 43% | percentage of grafts with ICAM-1 reduced to focal or negative expression [4]: 57% | percentage of grafts with focal HLA-DR expression [4]: 14.3% | percentage of grafts with negative HLA-DR expression [4]: 28.6% | percentage of grafts with reduced TNF-α expression (partial and complete recovery) [4]: 57% | Epidermal Thickness, Mean ([4]; mean of 7 grafts): 736 μm | Proliferation Index (Ki-67 positive keratinocytes), Mean ([4]; mean of 7 grafts): 26.2% | mean epidermal thickness ([4]; mean of 7 mice): 736 microns | Epidermal Thickness of individual skin graft ([4]; Patient 1): 687 μm | Histological Evaluation of individual skin graft ([4]; Patient 1): Partial recovery w/ | Proliferation Index of individual skin graft ([4]; Patient 1): 41.9% | Epidermal Thickness of individual skin graft ([4]; Patient 2): 1098 μm | Histological Evaluation of individual skin graft ([4]; Patient 2): Psoriasiform | Proliferation Index of individual skin graft ([4]; Patient 2): 47.4% | Epidermal Thickness of individual skin graft ([4]; Patient 3): 626 μm | Histological Evaluation of individual skin graft ([4]; Patient 3): Psoriasiform | Proliferation Index of individual skin graft ([4]; Patient 3): 33.5% | Epidermal Thickness of individual skin graft ([4]; Patient 4): 333 μm | Histological Evaluation of individual skin graft ([4]; Patient 4): Complete recovery | Proliferation Index of individual skin graft ([4]; Patient 4): 12.2% | Epidermal Thickness of individual skin graft ([4]; Patient 5): 457 μm | Histological Evaluation of individual skin graft ([4]; Patient 5): Complete recovery | Proliferation Index of individual skin graft ([4]; Patient 5): 9.2% | Epidermal Thickness of individual skin graft ([4]; Patient 6): 627 μm | Histological Evaluation of individual skin graft ([4]; Patient 6): Complete recovery | Proliferation Index of individual skin graft ([4]; Patient 6): 21.4% | Epidermal Thickness of individual skin graft ([4]; Patient 7): 1324 μm | Histological Evaluation of individual skin graft ([4]; Patient 7): Psoriasiform | Proliferation Index of individual skin graft ([4]; Patient 7): 17.5%
